Experimental data published in ChEMBL document CHEMBL6177948, “Discovery of potential Leonurine-based therapeutic lead MJ210 attenuates Parkinson's disease pathogenesis via NF-κB and MAPK pathways: Mechanistic insights from in vitro and in vivo rotenone models” (Eur J Med Chem, 2025).
Active and inactive are the calls of the source. The calls are words filed in the database; no cut-off is given here.

Assays:
SH-SY5Y [1] = assay: Reversal of rotenone-induced mitochondrial membrane depolarization in human SH-SY5Y cells assessed as increase in JC-10 aggregation by measuring red fluorescence at 5 uM preincubated with compound for 24 hrs followed by rotenone addition and measured after 24 hrs by JC-10 based fluorescence microscopic analysis; assay type: functional, cell-based
Rattus norvegicus [2] = assay: Anti-inflammatory activity in rotenone-induced male Wistar rat model assessed as reduction in PGE2 expression level in substantia nigra at 5 mg/kg, ip pretreated with compound every alternative days followed by rotenone addition and measured after 42 days by ELISA; assay type: functional, organism-based; conditions: time 42.0 day
SH-SY5Y [3] = assay: Anti-apoptotic activity in rotenone-induced human SH-SY5Y cells assessed as reduction in Bax expression by Western blotting analysis; assay type: functional, cell-based
SH-SY5Y [4] = assay: (§1) Neuroprotective activity against rotenone-induced mitochondrial ROS generation in human SH-SY5Y cells assessed as decrease in ROS level at 5 uM preincubated with compound for 24 hrs followed by rotenone addition and measured after 24 hrs by Hoechst 33258 staining based fluorescence microscopic analysis; assay type: functional, cell-based; conditions: time 48.0 hrs
Rattus norvegicus [5] = assay: In vivo inhibition of MAPK signaling pathway in rotenone-induced parkinson disease male Wistar rat model assessed as reduction in JNK phosphorylation level in substantia nigra at 5 mg/kg, ip pretreated with compound every alternative days followed by rotenone addition and measured after 42 days by Western blotting analysis; assay type: functional, organism-based; conditions: time 42.0 day
Rattus norvegicus [6] = assay: Anti-parkinson activity in rotenone-induced male Wistar rat model assessed as increase in TH expression in substantia nigra at 5 to 10 mg/kg, ip pretreated with compound every alternative days followed by rotenone addition and measured after 42 days by Western blotting analysis; assay type: functional, organism-based; conditions: dose 5-10 mg/kg, time 42.0 day
Rattus norvegicus [7] = assay: Anti-parkinson activity in rotenone-induced neurodegeneration in male Wistar rat model assessed as decrease count of pyknotic cells in substantia nigra at 5 mg/kg, ip pretreated with compound every alternative days followed by rotenone addition and measured after 42 days by H and E staining based analysis; assay type: functional, organism-based; conditions: time 42.0 day
[8] = Toxicity in male Wistar rat assessed as change in cellular structure of heart at 1 to 10 mg/kg by H and E staining based analysis; assay type: organism-based; conditions: in vivo, dose 1-10 mg/kg
Rattus norvegicus [9] = assay: Improvement in rotenone-induced depression-like behavior in male Wistar rat model assessed as improvement in sucrose intake at 5 mg/kg, ip pretreated with compound every alternative days followed by rotenone addition and measured after 42 days by sucrose preference test; assay type: functional, organism-based; conditions: time 42.0 day
Rattus norvegicus [10] = assay: Anti-parkinson activity in rotenone-induced neurodegeneration in male Wistar rat model assessed as reduction in necrosis in substantia nigra at 5 mg/kg, ip pretreated with compound every alternative days followed by rotenone addition and measured after 42 days by Nissl staining based analysis; assay type: functional, organism-based; conditions: time 42.0 day
Rattus norvegicus [11] = assay: Anti-parkinson activity in rotenone-induced neurodegeneration in male Wistar rat model assessed as minimal neuronal loss in striatum at 5 mg/kg, ip pretreated with compound every alternative days followed by rotenone addition and measured after 42 days by H and E staining based analysis; assay type: functional, organism-based; conditions: time 42.0 day
Rattus norvegicus [12] = assay: Anti-parkinson activity in rotenone-induced neurodegeneration in male Wistar rat model assessed as reduced edema in cortex at 5 mg/kg, ip pretreated with compound every alternative days followed by rotenone addition and measured after 42 days by H and E staining based analysis; assay type: functional, organism-based; conditions: time 42.0 day
SH-SY5Y [13] = assay: as §1, with “morphological changes” for “ROS generation”, “filamentous mitochondrial shape” for “decrease in ROS level”, “Mito Tracker” for “Hoechst 33258”; assay type: functional, cell-based; conditions: time 48.0 hrs
Rattus norvegicus [14] = assay: Anti-parkinson activity in rotenone-induced neurodegeneration in male Wistar rat model assessed as decrease count of pyknotic cells in cortex at 5 mg/kg, ip pretreated with compound every alternative days followed by rotenone addition and measured after 42 days by H and E staining based analysis; assay type: functional, organism-based; conditions: time 42.0 day
Rattus norvegicus [15] = assay: Anti-parkinson activity in rotenone-induced male Wistar rat model assessed as increase DAT expression in striatum at 5 mg/kg, ip pretreated with compound every alternative days followed by rotenone addition and measured after 42 days by Western blotting analysis; assay type: functional, organism-based; conditions: time 42.0 day
[16] = Toxicity in male Wistar rat assessed as change in cellular structure of kidney at 1 to 10 mg/kg by H and E staining based analysis; assay type: organism-based; conditions: in vivo, dose 1-10 mg/kg
Rattus norvegicus [17] = assay: Anti-parkinson activity in rotenone-induced male Wistar rat assessed as increase in TH positive fiber density in […] at 5 mg/kg, ip pretreated with compound every alternative days followed by rotenone addition and measured after 42 days by immunofluorescence staining based analysis; assay type: functional, organism-based; conditions: time 42.0 day
SH-SY5Y [18] = assay: Inhibition of MAPK signaling pathway in rotenone-induced human SH-SY5Y cells assessed as reduction in JNK phosphorylation level by ELISA; assay type: cell-based
SH-SY5Y [19] = assay: Anti-inflammatory activity against rotenone-induced human SH-SY5Y cells assessed as reduction in IL-1beta mRNA expression level by RT-qPCR analysis; assay type: functional, cell-based
Rattus norvegicus [20] = assay: Anti-parkinson activity in rotenone-induced male Wistar rat model assessed as improvement in t-turn metrics at 5 mg/kg, ip pretreated with compound every alternative days followed by rotenone addition and measured after 42 days by pole test; assay type: functional, organism-based; conditions: time 42.0 day
Rattus norvegicus [21] = assay: Anti-parkinson activity in rotenone-induced neurodegeneration in male Wistar rat model assessed as reduced edema in striatum at 5 mg/kg, ip pretreated with compound every alternative days followed by rotenone addition and measured after 42 days by H and E staining based analysis; assay type: functional, organism-based; conditions: time 42.0 day
Rattus norvegicus [22] = assay: Improvement of motor dysfunction in rotenone-induced male Wistar rat model assessed as reduction in number of falls at 5 mg/kg, ip pretreated with compound every alternative days followed by rotenone addition and measured after 42 days by rotarod test; assay type: functional, organism-based; conditions: time 42.0 day
SH-SY5Y [23] = assay: Reversal of rotenone-induced mitochondrial membrane depolarization in human SH-SY5Y cells assessed as increase in aggregates to monomer ratio at 5 uM preincubated with compound for 24 hrs followed by rotenone addition and measured after 24 hrs by JC-10 based fluorescence microscopic analysis; assay type: functional, cell-based; conditions: time 48.0 hrs
Rattus norvegicus [24] = assay: Anti-parkinson activity in rotenone-induced male Wistar rat model assessed as decrease in fall time at 5 mg/kg, ip pretreated with compound every alternative days followed by rotenone addition and measured after 42 days by inverted grid test; assay type: functional, organism-based; conditions: time 42.0 day
SH-SY5Y [25] = assay: Neuroprotective activity against rotenone-induced cytotoxicity in human SH-SY5Y cells assessed as increase in number of live cells by measuring mean fluorescence intensity; assay type: functional, cell-based
SH-SY5Y [26] = assay: Neuroprotective activity against rotenone-induced ROS formation in human SH-SY5Y cells assessed as decrease in ROS level at 5 uM preincubated with compound for 24 hrs followed by rotenone addition by H2DCFDA staining based fluorescence microscopic analysis; assay type: functional, cell-based
Rattus norvegicus [27] = assay: Anti-parkinson activity in rotenone-induced neurodegeneration in male Wistar rat model assessed as decrease neuronal damage in substantia nigra at 5 mg/kg, ip pretreated with compound every alternative days followed by rotenone addition and measured after 42 days by Nissl staining based analysis; assay type: functional, organism-based; conditions: time 42.0 day
SH-SY5Y [28] = assay: Neuroprotective activity against rotenone-induced cytotoxicity in human SH-SY5Y cells assessed as increase in cell viability at 1 to 20 uM incubated for 24 hrs by MTT assay relative to control; assay type: functional; conditions: dose 1-20 µM
Rattus norvegicus [29] = assay: Anti-inflammatory activity in rotenone-induced male Wistar rat model assessed as reduction in IL-1beta expression level in striatum at 5 mg/kg, ip pretreated with compound every alternative days followed by rotenone addition and measured after 42 days by ELISA; assay type: functional, organism-based; conditions: time 42.0 day
SH-SY5Y [30] = assay: Reversal of rotenone-induced mitochondrial membrane depolarization in human SH-SY5Y cells assessed as increase in aggregates fluorescence intensity at 5 uM preincubated with compound for 24 hrs followed by rotenone addition and measured after 24 hrs by JC-10 based fluorescence microscopic analysis; assay type: functional, cell-based; conditions: time 48.0 hrs
SH-SY5Y [31] = assay: Anti-inflammatory activity against rotenone-induced human SH-SY5Y cells assessed as reduction in CoX-2 mRNA expression level by RT-qPCR analysis; assay type: functional, cell-based
SH-SY5Y [32] = assay: as §1, with “neuronal apoptosis” for “mitochondrial ROS generation”, “number of apoptotic cells” for “ROS level”; assay type: functional, cell-based; conditions: time 48.0 hrs

COc1cc(CCC(=O)N2CCCCC2)cc(OC)c1OC(=O)c1ccccn1
Activity (SH-SY5Y [1]): Active
Activity (Rattus norvegicus [2]): Active
Activity (SH-SY5Y [3]): Active
Activity (SH-SY5Y [4]): Active
inhibition (Rattus norvegicus [5]): Active
Activity (Rattus norvegicus [6]): Active
Activity (Rattus norvegicus [7]): Active
Activity [8]: Non-toxic
Activity (Rattus norvegicus [9]): Active
Activity (Rattus norvegicus [10]): Active
Activity (Rattus norvegicus [11]): Active
Activity (Rattus norvegicus [12]): Active
Activity (SH-SY5Y [13]): Active
Activity (Rattus norvegicus [14]): Active
Activity (Rattus norvegicus [15]): Active
Activity [16]: Non-toxic
Activity (Rattus norvegicus [17]): Active
inhibition (SH-SY5Y [18]): Active
Activity (SH-SY5Y [19]): Active
Activity (Rattus norvegicus [20]): Active
Activity (Rattus norvegicus [21]): Active
Activity (Rattus norvegicus [22]): Active
Activity (SH-SY5Y [23]): Active
Activity (Rattus norvegicus [24]): Active
Activity (SH-SY5Y [25]): Active
Activity (SH-SY5Y [26]): Active
Activity (Rattus norvegicus [27]): Active
Activity (SH-SY5Y [28]): 81.9%
Activity (Rattus norvegicus [29]): Active
Activity (SH-SY5Y [30]): Active
Activity (SH-SY5Y [31]): Active
Activity (SH-SY5Y [32]): Active
